Read-outs that look alike come from different tables or passages of the source.
How the values were obtained:
Experiment in all cases: Example 1: quantification of 4M3H on cotton fabric with 14-methylhexadecanoic acid
[1] = system: M. osloensis NCIMB10693; assay type: cell-based, Moraxella osloensis
Method: (§1) 10 mL of methanol was added to the towel that had been left to stand still for 24 hours, and 1 mL of the methanol was mixed with 1 mL of ADAM (9-anthrydiazomethanene, manufactured by Funakoshi Corp., 0.1 w/v %). The mixture was left to stand for 60 minutes at room temperature, and thus derivatization was carried out.
(§2) Thereafter, 10 μL of the solution was analyzed by using LC-FL (liquid chromatography apparatus: HITACHI ELITE LaChrom (trade name, manufactured by Hitachi, Ltd.), column: Lichrosphere 100 RP-8(e) (trade name, manufactured by Agilent Technologies, Inc., 5 μm×125 mm×4 mmφ), column temperature: 40° C., eluent a mixed solution of acetonitrile/water=7/3 (volume ratio), flow rate: 1.0 mL/min, detector: excitation wavelength (365 nm), measurement wavelength (412 nm)), and thereby quantification of 4M3H thus produced was carried out. In regard to the amount of production of 4M3H, a sample which produced 4M3H in an amount of more than 1 μg was rated as “[…]”; a sample which produced 4M3H in an amount of more than 0.1 μg and 1 μg or less was rated as “∘”; a sample which produced 4M3H in an amount of more than 0 μg and 0.1 μg or less was rated as “Δ”; and a sample in which no 4M3H was detected was rated as “x”.
(§3) One platinum loop of each of Moraxella osloensis NCIMB10693, Moraxella sp. 4-1, Psychrobacter pacificensis NBRC103191, Psychrobacter glacincola NCIMB101053, Pseudomonas alcaligenes No. 41, Acinetobacter calcoaceticus HH2BD-49, Saccaromyces cerevisiae NBRC1661, Rhodotorula mucilaginosa NBRC0909 and Rhodotorula slooffiae 13c was inoculated into 5 mL of a SCD liquid medium (manufactured by Nihon Pharmaceutical Co., Ltd.), and the microbial cells were subjected to shaking culture (160 rpm) at 35° C. for 24 hours. The microbial cells obtained after culture were centrifuged (8000×g, 10 minutes), the supernatant was removed, and then the microbial cells were suspended in 5 mL of physiological saline. The suspension was centrifuged again (8000×g, 10 minutes), subsequently the supernatant was removed, and a microbial suspension was prepared by using physiological saline such that the OD600 would be 0.1.
(§4) Furthermore, 0.1 mL each of 10-ppm or 100-ppm aqueous solutions of the compounds shown in the following Table 6 was applied on the fabric described above. As a control, a fabric on which sterilized water was applied instead of the compounds described below was also prepared.
(§5) On a plain-woven cotton fabric prepared as described above, 0.1 mL each of the various microbial suspensions was inoculated, and the samples were left to stand still under humidified conditions at 37° C. for 24 hours and were subjected to an evaluation such as described below.
(§6) Quantification of 4M3H was carried out by the same method as that used in Test Example 3, and by taking as a reference the 4M3H production amount of a sample on which sterilized water was applied as a test substance, the 4M3H production amounts in the case of applying other test substances were evaluated on the basis of the following criteria. • A: (4M3H production amount in the case of applying a test substance)<( 1/100 of the 4M3H production amount in the case of applying sterilized water) • B: ( 1/100 of the 4M3H production amount in the case of applying sterilized water)≦(4M3H production amount in the case of applying a test substance)<( 1/10 of the 4M3H production amount in the case of applying sterilized water) • C: ( 1/10 of the 4M3H production amount in the case of applying sterilized water)≦(4M3H production amount in the case of applying a test substance)<(4M3H production amount in the case of applying sterilized water) • D: (4M3H production amount in the case of applying sterilized water)≦(4M3H production amount in the case of applying a test substance)

[2] = system: Moraxella sp. 4-1; assay type: cell-based; settings: 37° C., 24 hours, vs sterilized water
Method: as §1, §2, §3, §4, §5, §6

[3] = system: P. pacificensis NBRC103191; assay type: cell-based, Psychrobacter pacificensis; settings: 37° C., 24 hours, vs sterilized water
Method: as §1, §2, §3, §4, §5, §6

[4] = system: P. glacincola NBRC101053; assay type: cell-based, Psychrobacter glacincola; settings: 37° C., 24 hours, vs sterilized water
Method: as §1, §2, §3, §4, §5, §6

[5] = system: P. alcaligenes No. 41; assay type: cell-based, Pseudomonas alcaligenes; settings: 37° C., 24 hours, vs sterilized water
Method: as §1, §2, §3, §4, §5, §6

[6] = system: A. calcoaceticus HH2BD-49; assay type: cell-based, Acinetobacter calcoaceticus; settings: 37° C., 24 hours, vs sterilized water
Method: as §1, §2, §3, §4, §5, §6

[7] = system: S. cerevisiae NBRC1661; assay type: cell-based, Saccaromyces cerevisiae; settings: 37° C., 24 hours, vs sterilized water
Method: as §1, §2, §3, §4, §5, §6

[8] = system: R. muculaginosa NBRC0909; assay type: cell-based, Rhodotorula mucilaginosa; settings: 37° C., 24 hours, vs sterilized water
Method: as §1, §2, §3, §4, §5, §6

[9] = system: R. slooffiae 13c; assay type: cell-based, Rhodotorula slooffiae; settings: 37° C., 24 hours, vs sterilized water
Method: as §1, §2, §3, §4, §5, §6

[10] = 10 ppm test substance, M. osloensis NCIMB10693, cotton fabric with 14-methylhexadecanoic acid, 37° C., 24 hours, vs sterilized water
[11] = 100 ppm test substance, M. osloensis NCIMB10693, cotton fabric with 14-methylhexadecanoic acid, 37° C., 24 hours, vs sterilized water
[12] = Faucicola osloensis, NCIMB10693, 24 h, read-out: Production amount of 4M3H
[13] = Faucicola osloensis, 100 ppm test substance, M. osloensis NCIMB10693, cotton fabric with 14-methylhexadecanoic acid, 37° C., 24 hours, vs sterilized water, read-out: Production amount of 4M3H

## CN(C)c1ccc(/C([S-])=C(/[S-])c2ccccc2)cc1.CN(C)c1ccc(/C([S-])=C(/[S-])c2ccccc2)cc1.[Ni] [Bis(4-dimethylaminodithiobenzil)nickel]
[1]; [10]
  Production amount of 4M3H: C (( 1/10 of the 4M3H production amount in the case of applying sterilized water)≦(4M3H production amount in the case of applying a test substance)<(4M3H production amount in the case of applying sterilized water))
[1]; [11]
  Production amount of 4M3H: A ((4M3H production amount in the case of applying a test substance)<( 1/100 of the 4M3H production amount in the case of applying sterilized water))
[2]; 10 ppm test substance
  Production amount of 4M3H: B (( 1/100 of the 4M3H production amount in the case of applying sterilized water)≦(4M3H production amount in the case of applying a test substance)<( 1/10 of the 4M3H production amount in the case of applying sterilized water))
[2]; 100 ppm test substance
  Production amount of 4M3H: A ((4M3H production amount in the case of applying a test substance)<( 1/100 of the 4M3H production amount in the case of applying sterilized water))
[3]; 10 ppm test substance
  Production amount of 4M3H: C (( 1/10 of the 4M3H production amount in the case of applying sterilized water)≦(4M3H production amount in the case of applying a test substance)<(4M3H production amount in the case of applying sterilized water))
[3]; 100 ppm test substance
  Production amount of 4M3H: B (( 1/100 of the 4M3H production amount in the case of applying sterilized water)≦(4M3H production amount in the case of applying a test substance)<( 1/10 of the 4M3H production amount in the case of applying sterilized water))
[4]; 10 ppm test substance
  Production amount of 4M3H: A ((4M3H production amount in the case of applying a test substance)<( 1/100 of the 4M3H production amount in the case of applying sterilized water))
[4]; 100 ppm test substance
  Production amount of 4M3H: A ((4M3H production amount in the case of applying a test substance)<( 1/100 of the 4M3H production amount in the case of applying sterilized water))
[5]; 10 ppm test substance
  Production amount of 4M3H: C (( 1/10 of the 4M3H production amount in the case of applying sterilized water)≦(4M3H production amount in the case of applying a test substance)<(4M3H production amount in the case of applying sterilized water))
[5]; 100 ppm test substance
  Production amount of 4M3H: A ((4M3H production amount in the case of applying a test substance)<( 1/100 of the 4M3H production amount in the case of applying sterilized water))
[6]; 10 ppm test substance
  Production amount of 4M3H: B (( 1/100 of the 4M3H production amount in the case of applying sterilized water)≦(4M3H production amount in the case of applying a test substance)<( 1/10 of the 4M3H production amount in the case of applying sterilized water))
[6]; 100 ppm test substance
  Production amount of 4M3H: A ((4M3H production amount in the case of applying a test substance)<( 1/100 of the 4M3H production amount in the case of applying sterilized water))
[7]; 10 ppm test substance
  Production amount of 4M3H: C (( 1/10 of the 4M3H production amount in the case of applying sterilized water)≦(4M3H production amount in the case of applying a test substance)<(4M3H production amount in the case of applying sterilized water))
[7]; 100 ppm test substance
  Production amount of 4M3H: A ((4M3H production amount in the case of applying a test substance)<( 1/100 of the 4M3H production amount in the case of applying sterilized water))
[8]; 10 ppm test substance
  Production amount of 4M3H: B (( 1/100 of the 4M3H production amount in the case of applying sterilized water)≦(4M3H production amount in the case of applying a test substance)<( 1/10 of the 4M3H production amount in the case of applying sterilized water))
[8]; 100 ppm test substance
  Production amount of 4M3H: A ((4M3H production amount in the case of applying a test substance)<( 1/100 of the 4M3H production amount in the case of applying sterilized water))
[9]; 10 ppm test substance
  Production amount of 4M3H: C (( 1/10 of the 4M3H production amount in the case of applying sterilized water)≦(4M3H production amount in the case of applying a test substance)<(4M3H production amount in the case of applying sterilized water))
[9]; 100 ppm test substance
  Production amount of 4M3H: A ((4M3H production amount in the case of applying a test substance)<( 1/100 of the 4M3H production amount in the case of applying sterilized water))

## O=C/C=C/c1ccccc1 [Cinnamic aldehyde]
[1]; [12]
  activity at 10 ppm: 10 to 100%
  activity at 100 ppm: < 1%

## CCCCCCCCCCCC[N+](C)(C)C [Dodecyl trimethyl ammonium chloride]
[1]; [12]
  activity at 100 ppm: 10 to 100%

## CCCCCCCCCCCCCCCC[N+](C)(C)C [Hexadecyl trimethyl ammonium chloride]
[1]; [12]
  activity at 100 ppm: > 100%

## CCCCC/C=C\C/C=C\CCCCCCCC(=O)O [Linoleic acid]
[1]; [13]
  activity at 100 ppm: 1 to 10%

## CC/C=C\C/C=C\C/C=C\CCCCCCCC(=O)O [Linolenic acid]
[1]; [13]
  activity at 100 ppm: 1 to 10%

## CCCCCCCCCCCCCCCC(=O)O [Palmitic acid]
[1]; [13]
  activity at 100 ppm: 10 to 100%

## CCCCCCCCCCCCCCCCCC(=O)O [Stearic acid]
[1]; [13]
  activity at 100 ppm: 10 to 100%

## CCCCCCCCCCCCCC[N+](C)(C)C [Tetradecyl trimethyl ammonium chloride]
[1]; [13]
  activity at 100 ppm: 10 to 100%

## Polylysine
[1]; [10]
  Production amount of 4M3H: D ((4M3H production amount in the case of applying sterilized water)≦(4M3H production amount in the case of applying a test substance))
[1]; [11]
  Production amount of 4M3H: C (( 1/10 of the 4M3H production amount in the case of applying sterilized water)≦(4M3H production amount in the case of applying a test substance)<(4M3H production amount in the case of applying sterilized water))

## Polyoxyethylene (10) lauryl ether
[1]; [11]
  Production amount of 4M3H: D ((4M3H production amount in the case of applying sterilized water)≦(4M3H production amount in the case of applying a test substance))

## Sodium alkylbenzene sulfonate [Sodium akylbenzene sulfonate]
[1]; [11]
  Production amount of 4M3H: C (( 1/10 of the 4M3H production amount in the case of applying sterilized water)≦(4M3H production amount in the case of applying a test substance)<(4M3H production amount in the case of applying sterilized water))
